# Measured values: patent publication US20260159536A1, “AKR1C3-ACTIVATED DNA ALKYLATING AGENT, AND MEDICAL APPLICATION THEREOF” (ASCENTAWITS PHARMACEUTICALS, LTD., priority 2021, published 2026)
# Where two headings read alike, the source gives them in different places.
# Assays:
# NCI-H1944 = assay: AKR1C3-dependent cytotoxicity, NSCLC cell line NCI-H1944; type: cell-based; details: Homo sapiens
# Procedure: (§1) The tested compound was then added. The compound was dissolved in 100% DMSO at 200 times of the desired final test concentration. When the medicament was added, the compound was further diluted to 4 times of the desired final test concentration by using the complete medium. 50 μL of aliquots of the compound with specific concentration were added to the microwells containing 150 μL of medium, and then the final medicament concentration was obtained. […] The medicament was then washed. […] After the incubation was finished, the Alamar Blue was used to analyze and quantify the living cells.
# NCIH1755 = assay: AKR1C3-dependent cytotoxicity, NSCLC cell line NCIH1755; type: cell-based; details: Homo sapiens, NCI-H1755
# Procedure: as §1
# [1] = Liver microsome stability, rat; type: in vitro ADME; details: for Percentage remaining after 30 minutes: Rat liver microsomes
# Procedure: 1) Two individual experiments were performed.
# All experiments were performed in duplicate.
# NCI-H522 = assay: AKR1C3-dependent cytotoxicity, NSCLC cell line NCI-H522; type: cell-based; details: Homo sapiens
# Procedure: as §1
# NCI-H1563 = assay: AKR1C3-dependent cytotoxicity, NSCLC cell line NCI-H1563; type: cell-based; details: Homo sapiens
# Procedure: as §1
# P-gp = biological target: T1, P-gp (Homo sapiens, UniProt P08183); assay: P-gp substrate evaluation, MDCKII-MDR1 penetration test with or without Verapamil; type: in vitro ADME
# T1 construct: expressed in transfected cells; host or cells: MDCKII-MDR1 cells
# T1 sequence (P08183 whole entry): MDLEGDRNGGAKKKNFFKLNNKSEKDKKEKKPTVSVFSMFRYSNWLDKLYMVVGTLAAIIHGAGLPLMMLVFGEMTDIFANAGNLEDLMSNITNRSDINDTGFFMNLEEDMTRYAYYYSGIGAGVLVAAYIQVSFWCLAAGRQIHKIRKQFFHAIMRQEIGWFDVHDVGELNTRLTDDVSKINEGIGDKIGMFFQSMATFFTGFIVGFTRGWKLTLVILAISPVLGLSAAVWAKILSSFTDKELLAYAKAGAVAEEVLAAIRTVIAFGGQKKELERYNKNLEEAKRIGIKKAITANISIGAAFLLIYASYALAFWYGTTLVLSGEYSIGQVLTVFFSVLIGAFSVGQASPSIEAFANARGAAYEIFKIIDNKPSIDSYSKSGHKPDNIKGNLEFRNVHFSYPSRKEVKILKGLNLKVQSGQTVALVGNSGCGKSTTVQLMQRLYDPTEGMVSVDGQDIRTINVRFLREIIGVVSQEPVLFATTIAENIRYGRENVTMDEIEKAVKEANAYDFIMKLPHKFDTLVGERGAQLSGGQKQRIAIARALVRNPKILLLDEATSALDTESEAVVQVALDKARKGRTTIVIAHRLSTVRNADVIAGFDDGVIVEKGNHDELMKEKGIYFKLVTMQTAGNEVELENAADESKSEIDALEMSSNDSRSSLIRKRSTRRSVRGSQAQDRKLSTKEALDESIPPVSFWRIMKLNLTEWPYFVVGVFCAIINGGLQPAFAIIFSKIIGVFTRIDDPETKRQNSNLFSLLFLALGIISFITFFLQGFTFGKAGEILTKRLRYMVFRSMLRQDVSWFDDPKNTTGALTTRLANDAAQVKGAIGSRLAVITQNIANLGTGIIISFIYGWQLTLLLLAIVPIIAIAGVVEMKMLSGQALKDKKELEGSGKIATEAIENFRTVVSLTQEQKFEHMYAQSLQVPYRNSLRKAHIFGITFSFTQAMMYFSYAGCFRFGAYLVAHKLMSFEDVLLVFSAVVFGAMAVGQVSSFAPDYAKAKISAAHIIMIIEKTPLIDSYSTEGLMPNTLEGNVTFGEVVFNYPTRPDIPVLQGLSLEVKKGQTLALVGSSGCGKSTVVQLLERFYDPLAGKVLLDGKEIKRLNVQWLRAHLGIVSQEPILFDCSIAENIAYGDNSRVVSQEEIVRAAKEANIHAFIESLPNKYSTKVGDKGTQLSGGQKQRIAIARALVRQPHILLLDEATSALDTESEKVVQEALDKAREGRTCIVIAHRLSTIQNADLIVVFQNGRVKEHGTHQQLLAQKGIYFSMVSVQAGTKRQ
# Procedure: The conditions of the incubator were set as 37° C., 5% CO2, and 95% of the relative humidity.
# After that, the MDCKII-MDR1 cells can be used for the penetration test.
# (1) MDCKII-MDR1 transwell culture plate was taken out from the incubator.
# (6) The upper and lower transportations were pooled and then incubated at 37° C. for 2 h.
# After the sample tubes were vortexed for 10 min, and centrifuged at 3220 g for 30 min. […] Each sample was adopted to the three parallel incubation.
# Efflux Ratio was calculated by the following formula: […]
# Recovery was calculated by the following formula: […]
# CAL12T = assay: AKR1C3-dependent cytotoxicity, NSCLC cell line CAL12T; type: cell-based; details: Homo sapiens, CAL-12T
# Procedure: as §1
# H460 cancer cells = assay: H460 proliferation in the presence or absence of AKR1C3 inhibitor AST-3021 (Alamar Blue); type: cell-based, human; details: for IC50: Homo sapiens, NCI-H460, H460, 2 hours exposure
# Procedure: as §1
# NCIH2106 = assay: AKR1C3-dependent cytotoxicity, NSCLC cell line NCIH2106; type: cell-based
# Procedure: as §1
# H460 cells = assay: Inhibition of H460 cancer cell proliferation (CTG, 72 h); type: cell-based; details: Homo sapiens, NCI-H460
# Procedure: If not otherwise specified, IC50 values were measured by the following experimental methods:
# c) The cell suspension was added to 96-well plate with 100 μL per well and 2000 cells/well of cell density.
# a) Cells were plated for 24 hours, and then the compounds acted singly. 99 μL of growth medium was supplemented per well, and then 1 μL of 200× compound was added, gently shaken to ensure uniform mixing, and then placed in a 37° C., 5% CO2 incubator.
# b) The cell plate was placed in the incubator for 72 hours.
# b) 100 μL of CTG reagent (CelltiterGlo kit) was added to each well, the plate was placed in a rapid oscillator and shaken for 2 minutes, and then placed at room temperature for 30 minutes away from light.
# c) The chemiluminescence signal value was read with Envision instrument.
# The IC50 was calculated using GraphPad Prism 8 software and the IC50 (half inhibitory concentration) of the compounds was obtained using the following non-linear fitting formula: […]
# [2] = system: HuPrime model LI6643 human liver cancer; assay: In vivo pharmacodynamics, liver cancer LI6643 PDX model (Compound A, Sorafenib, AST-3424; section 4.7); set-up: species or system BALB/c nude mice; details: for Relative tumor volume (x ± S) / T/C (%) / TGI (%) / Tumor volume (x ± S): 2 weeks off, QDx5; for Tumor volume (x ± S): in mm³
# Procedure: Experiment Instruction: BALB/c nude mice were subcutaneously inoculated with HuPrime® model LI6643 tumor blocks to establish a subcutaneous grafted tumor model of human liver cancer. […] The efficacy was evaluated according to the relative tumor inhibition rate TGI (%), and the safety was evaluated according to the change in body weight and the death of the animals.
# [3] = 0.5 mg/kg i.v. QDx5, 2 days off, Day 21
# [4] = 2 mg/kg i.v. QDx5, 2 days off, Day 21
# [5] = Compound A 1 mg/kg i.v. QDx5, 2 days off, Day 21
smiles,measurement,setting,value
O=[N+]([O-])c1ccc(C(OP(=O)(N2CC2)N2CC2)C(F)(F)F)cc1Oc1ccc(-c2ccc(F)cc2)c(F)c1 (racemic) [Compound A],IC50,NCI-H1944,71.3 nM
same,IC50,NCIH1755,570 nM
same,Percentage remaining after 30 minutes,[1]; with the addition of NADPH,92.10%
same,Percentage remaining after 30 minutes,[1]; without the addition of NADPH,114.62%
same,stability in liver microsomes,[1]; rat,relatively unstable
same,IC50,NCI-H522,14.1 µM
same,IC50,NCI-H1563,454 nM
same,P-gp substrate,"P-gp; MDCKII-MDR1, with and without Verapamil",not substrates for Pgp
same,Papp A→B at 2 h,"P-gp; dog, MDCK-MDR1",0.18 ×10⁻⁶ cm/s
same,Papp B→A at 2 h,"P-gp; dog, MDCK-MDR1",0.24 ×10⁻⁶ cm/s
same,recovery at 2 h,"P-gp; dog, MDCK-MDR1, Verapamil 0 μM, read-out: Recovery (%) AP-BL",5.03%
same,recovery at 2 h,"P-gp; dog, MDCK-MDR1, Verapamil 0 μM, read-out: Recovery (%) BL-AP",4.34%
same,recovery at 2 h,"P-gp; dog, MDCK-MDR1, with Verapamil 100 μM, Verapamil 100 μM, read-out: Recovery (%) AP-BL",5.7%
same,recovery at 2 h,"P-gp; dog, MDCK-MDR1, with Verapamil 100 μM, Verapamil 100 μM, read-out: Recovery (%) BL-AP",12.6%
same,IC50,CAL12T,8.08 µM
same,IC50,"H460 cancer cells; AST-3021 3 micromolar, read-out: IC50 With the addition of AST-3021",2140 nM
same,IC50,"H460 cancer cells; no AKR1C3 inhibitor, read-out: IC50 Without the addition of AST-3021",5.82 nM
same,Fold,H460 cancer cells; IC50 with AST-3021 over IC50 without,367.13
same,IC50,NCIH2106,6.86 µM
same,IC50,H460 cells,6.87 nM
same,Relative tumor volume (x ± S),[2]; [3],1.84 ± 0.25
same,T/C (%),[2]; [3],38.12%
same,TGI (%),[2]; [3],61.88%
same,Tumor volume (x ± S),[2]; [3],242.85 ± 50.74
same,Tumor volume,"[2]; 0.5 mg/kg i.v., Day 0",124.86 mm^3
same,Tumor volume,"[2]; 0.5 mg/kg i.v., Day 3",239.56 mm^3
same,Tumor volume,"[2]; 0.5 mg/kg i.v., Day 7",282.74 mm^3
same,Tumor volume,"[2]; 0.5 mg/kg i.v., Day 10",266.35 mm^3
same,Tumor volume,"[2]; 0.5 mg/kg i.v., Day 14",231.35 mm^3
same,Tumor volume,"[2]; 0.5 mg/kg i.v., Day 17",241.82 mm^3
same,Tumor volume,"[2]; 0.5 mg/kg i.v., Day 21",242.85 mm^3
same,Tumor volume,"[2]; 0.5 mg/kg i.v., Day 24",173.56 mm^3
same,Tumor volume,"[2]; 0.5 mg/kg i.v., Day 28",188.68 mm^3
same,Relative tumor volume (x ± S),[2]; [4],0.97 ± 0.14
same,T/C (%),[2]; [4],20.19%
same,TGI (%),[2]; [4],79.81%
same,Tumor volume (x ± S),[2]; [4],116.38 ± 20.17
same,Tumor volume,"[2]; 2 mg/kg i.v., Day 0",124.40 mm^3
same,Tumor volume,"[2]; 2 mg/kg i.v., Day 3",182.25 mm^3
same,Tumor volume,"[2]; 2 mg/kg i.v., Day 7",182.74 mm^3
same,Tumor volume,"[2]; 2 mg/kg i.v., Day 10",162.65 mm^3
same,Tumor volume,"[2]; 2 mg/kg i.v., Day 14",137.87 mm^3
same,Tumor volume,"[2]; 2 mg/kg i.v., Day 17",117.10 mm^3
same,Tumor volume,"[2]; 2 mg/kg i.v., Day 21",116.38 mm^3
same,Tumor volume,"[2]; 2 mg/kg i.v., Day 24",122.78 mm^3
same,Tumor volume,"[2]; 2 mg/kg i.v., Day 28",95.87 mm^3
same,Relative tumor volume (x ± S),[2]; [5],1.44 ± 0.16
same,T/C (%),[2]; [5],29.91%
same,TGI (%),[2]; [5],70.09%
same,Tumor volume (x ± S),[2]; [5],174.86 ± 17.43
same,Tumor volume,"[2]; Compound A 1 mg/kg i.v., Day 0",124.32 mm^3
same,Tumor volume,"[2]; Compound A 1 mg/kg i.v., Day 3",205.79 mm^3
same,Tumor volume,"[2]; Compound A 1 mg/kg i.v., Day 7",246.90 mm^3
same,Tumor volume,"[2]; Compound A 1 mg/kg i.v., Day 10",225.40 mm^3
same,Tumor volume,"[2]; Compound A 1 mg/kg i.v., Day 14",195.33 mm^3
same,Tumor volume,"[2]; Compound A 1 mg/kg i.v., Day 17",191.98 mm^3
same,Tumor volume,"[2]; Compound A 1 mg/kg i.v., Day 21",174.86 mm^3
same,Tumor volume,"[2]; Compound A 1 mg/kg i.v., Day 24",217.19 mm^3
same,Tumor volume,"[2]; Compound A 1 mg/kg i.v., Day 28",231.64 mm^3
